Measurements: US10906915B2, “Substituted pyrazoloazepin-4-ones and their use as phosphodiesterase inhibitors” (LEO Pharma A/S, priority 2016, dated 2021)

target: human PDE4D catalytic domain (UniProt no. Q08499) (Homo sapiens (Human), UniProt Q08499); assay: PDE4 assay (TR-FRET, FAM-cAMP cleavage); assay type: biochemical; settings: human PDE4D catalytic domain; molar concentration giving 50% inhibition of substrate cleavage; read-out: PDE4 IC50 range
Description: The human PDE4D catalytic domain (UniProt no. Q08499 [[…]]) was incubated with a mixture of non-labelled cAMP (cyclic adenosine monophosphate) and fluorescein amidite (FAM) conjugated cAMP and titrated test or reference compound. Following brief incubation the enzymatic reaction was stopped by addition of binding buffer containing nanoparticles with immobilized trivalent metal ions capable of binding 1) AMP phospho groups and 2) terbium (Tb) donor fluorophores. Subsequent excitation of the Tb donor triggers time-resolved FRET to adjacent FAM acceptor molecules resulting in light emission. In the presence of a PDE4 inhibitor, AMP generation was reduced resulting in a lower fluorescence signal. The cAMP phosphodiester is not bound by the detection system.
The results were calculated as the molar concentrations resulting in 50% inhibition of the substrate cleavage compared to controls samples, and are expressed as a range of IC50 (nM).

Chain of human PDE4D catalytic domain (Q08499 380-740 limits assumed): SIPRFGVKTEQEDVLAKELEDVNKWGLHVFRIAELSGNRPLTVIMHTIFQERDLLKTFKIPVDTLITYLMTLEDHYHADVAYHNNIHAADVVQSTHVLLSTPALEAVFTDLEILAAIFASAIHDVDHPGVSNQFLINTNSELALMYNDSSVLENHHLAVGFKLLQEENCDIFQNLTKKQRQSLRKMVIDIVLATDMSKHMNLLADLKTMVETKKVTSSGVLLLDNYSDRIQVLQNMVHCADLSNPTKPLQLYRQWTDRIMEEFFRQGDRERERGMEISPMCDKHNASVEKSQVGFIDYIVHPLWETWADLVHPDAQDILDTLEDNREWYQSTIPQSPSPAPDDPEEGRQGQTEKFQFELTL

| SMILES | IC50 [nM] |
| --- | --- |
| CCc1nn(C[C@@H](C)COC(=O)c2c(F)cccc2Cl)c2c1C(=O)NCC1(CCOCC1)C2 [Example 203, [(2R)-3-(3-ethyl-4-oxo-spiro[6,8-dihydro-5H-pyrazolo[4,3-c]azepine-7,4′-tetrahydropyran]-1-yl)-2-methyl-propyl] 2-chloro-6-fluoro-benzoate] | < 100 |
| CCc1nn(CCCOC(=O)c2cc(Cl)ccc2OC)c2c1C(=O)NCC1(CCOCC1)C2 [Example 93, 3-(3-ethyl-4-oxo-spiro[6,8-dihydro-5H-pyrazolo[4,3-c]azepine-7,4′-tetrahydropyran]-1-yl)propyl 5-chloro-2-methoxy-benzoate] | < 100 |
| CCc1nn(C[C@@H](C)COC(=O)c2cccc(F)c2F)c2c1C(=O)NCC1(CCOCC1)C2 [Example 179, [(2R)-3-(3-ethyl-4-oxo-spiro[6,8-dihydro-5H-pyrazolo[4,3-c]azepine-7,4′-tetrahydropyran]-1-yl)-2-methyl-propyl] 2,3-difluorobenzoate] | < 100 |
| CCc1nn(CCCOC(=O)c2cc(C)ccc2F)c2c1C(=O)NCC1(CCOCC1)C2 [Example 37, 3-(3-ethyl-4-oxo-spiro[6,8-dihydro-5H-pyrazolo[4,3-c]azepine-7,4′-tetrahydropyran]-1-yl)propyl 2-fluoro-5-methyl-benzoate] | < 100 |
| CCc1nn(CCCOC(=O)CCSC)c2c1C(=O)NCC1(CCOCC1)C2 [Example 13, 3-(3-ethyl-4-oxo-spiro[6,8-dihydro-5H-pyrazolo[4,3-c]azepine-7,4′-tetrahydropyran]-l-yl)propyl 3-methylsulfanylpropanoate] | 100 to 500 |
| CCc1nn(CCCOC(=O)c2ccccc2C#N)c2c1C(=O)NCC1(CCOCC1)C2 [Example 25, 3-(3-ethyl-4-oxo-spiro[6,8-dihydro-5H-pyrazolo[4,3-c]azepine-7,4′-tetrahydropyran]-1-yl)propyl 2-cyanobenzoate] | < 100 |
| CCc1nn(C[C@@H](C)COC(=O)c2ccc(C)cc2OC)c2c1C(=O)NCC1(CCOCC1)C2 [Example 187, [(2R)-3-(3-ethyl-4-oxo-spiro[6,8-dihydro-5H-pyrazolo[4,3-c]azepine-7,4′-tetrahydropyran]-1-yl)-2-methyl-propyl] 2-methoxy-4-methyl-benzoate] | < 100 |
| CCc1nn(C[C@@H](C)COC(=O)c2cccc(Cl)c2OC)c2c1C(=O)NCC1(CCOCC1)C2 [Example 209, [(2R)-3-(3-ethyl-4-oxo-spiro[6,8-dihydro-5H-pyrazolo[4,3-c]azepine-7,4′-tetrahydropyran]-1-yl)-2-methyl-propyl] 3-chloro-2-methoxy-benzoate] | < 100 |
| CCc1nn(C[C@@H](C)COC(=O)c2cc(OC)cc(C(F)(F)F)c2)c2c1C(=O)NCC1(CCOCC1)C2 [Example 232, [(2R)-3-(3-ethyl-4-oxo-spiro[6,8-dihydro-5H-pyrazolo[4,3-c]azepine-7,4′-tetrahydropyran]-1-yl)-2-methyl-propyl] 3-methoxy-5-(trifluoromethyl)benzoate] | < 100 |
| CCc1nn(C[C@@H](C)COC(=O)c2ccc(C(F)(F)F)c(F)c2)c2c1C(=O)NCC1(CCOCC1)C2 [Example 219, [(2R)-3-(3-ethyl-4-oxo-spiro[6,8-dihydro-5H-pyrazolo[4,3-c]azepine-7,4′-tetrahydropyran]-1-yl)-2-methyl-propyl] 3-fluoro-4-(trifluoromethyl)benzoate] | < 100 |
| CCc1nn(CCCOC(=O)c2cc(F)ccc2F)c2c1C(=O)NCC1(CCOCC1)C2 [Example 47, 3-(3-ethyl-4-oxo-spiro[6,8-dihydro-5H-pyrazolo[4,3-c]azepine-7,4′-tetrahydropyran]-1-yl)propyl 2,5-difluorobenzoate] | < 100 |
| CCc1nn(CCCOC(=O)c2ccc(S(=O)(=O)NC)cc2)c2c1C(=O)NCC1(CCOCC1)C2 [Example 117, 3-(3-ethyl-4-oxo-spiro[6,8-dihydro-5H-pyrazolo[4,3-c]azepine-7,4′-tetrahydropyran]-1-yl)propyl 4-(methylsulfamoyl) benzoate] | < 100 |
| CCc1nn(C[C@@H](C)COC(=O)c2ccc(OC)c(C(F)(F)F)c2)c2c1C(=O)NCC1(CCOCC1)C2 [Example 230, [(2R)-3-(3-ethyl-4-oxo-spiro[6,8-dihydro-5H-pyrazolo[4,3-c]azepine-7,4′-tetrahydropyran]-1-yl)-2-methyl-propyl] 4-methoxy-3-(trifluoromethyl)benzoate] | < 100 |
| CCc1nn(CCCOC(=O)c2ccc(C(F)(F)F)cc2C(F)(F)F)c2c1C(=O)NCC1(CCOCC1)C2 [Example 135, 3-(3-ethyl-4-oxo-spiro[6,8-dihydro-5H-pyrazolo[4,3-c]azepine-7,4′-tetrahydropyran]-1-yl)propyl 2,4-bis(trifluoromethyl) benzoate] | < 100 |
| CCc1nn(CCCOC(=O)c2cccc(F)c2OC)c2c1C(=O)NCC1(CCOCC1)C2 [Example 70, 3-(3-ethyl-4-oxo-spiro[6,8-dihydro-5H-pyrazolo[4,3-c]azepine-7,4′-tetrahydropyran]-1-yl)propyl 3-fluoro-2-methoxy-benzoate] | < 100 |
| CCc1nn(CCCOC(=O)c2ccc(C(F)(F)F)cc2)c2c1C(=O)NCC1(CCOCC1)C2 [Example 97, 3-(3-ethyl-4-oxo-spiro[6,8-dihydro-5H-pyrazolo[4,3-c]azepine-7,4′-tetrahydropyran]-1-yl)propyl 4-(trifluoromethyl)benzoate] | < 100 |
| CCc1nn(C[C@@H](C)COC(=O)c2cc(F)cc(C#N)c2)c2c1C(=O)NCC1(CCOCC1)C2 [Example 182, [(2R)-3-(3-ethyl-4-oxo-spiro[6,8-dihydro-5H-pyrazolo[4,3-c]azepine-7,4′-tetrahydropyran]-1-yl)-2-methyl-propyl] 3-cyano-5-fluoro-benzoate] | < 100 |
| CCc1nn(C[C@@H](C)COC(=O)c2ccc(C#N)cc2)c2c1C(=O)NCC1(CCOCC1)C2 [Example 168, [(2R)-3-(3-ethyl-4-oxo-spiro[6,8-dihydro-5H-pyrazolo[4,3-c]azepine-7,4′-tetrahydropyran]-1-yl)-2-methyl-propyl] 4-cyanobenzoate] | < 100 |
| CCc1nn(CCCOC(=O)c2ccc(C)cc2)c2c1C(=O)NCC1(CCOCC1)C2 [Example 1, 3-(3-Ethyl-4-oxo-spiro[6,8-dihydro-5H-pyrazolo[4,3-c]azepine-7,4′-tetrahydropyran]-1-yl)propyl 4-methylbenzoate] | < 100 |
| CCc1nn(CCCOC(=O)c2cc(OC)cc(C(F)(F)F)c2)c2c1C(=O)NCC1(CCOCC1)C2 [Example 120, 3-(3-ethyl-4-oxo-spiro[6,8-dihydro-5H-pyrazolo[4,3-c]azepine-7,4′-tetrahydropyran]-1-yl)propyl 3-methoxy-5-(trifluoromethyl)benzoate] | < 100 |
| CCc1nn(CCCOC(=O)c2cc(C#N)ccc2F)c2c1C(=O)NCC1(CCOCC1)C2 [Example 56, 3-(3-ethyl-4-oxo-spiro[6,8-dihydro-5H-pyrazolo[4,3-c]azepine-7,4′-tetrahydropyran]-1-yl)propyl 5-cyano-2-fluoro-benzoate] | < 100 |
| CCc1nn(C[C@@H](C)COC(=O)c2c(F)cccc2OC)c2c1C(=O)NCC1(CCOCC1)C2 [Example 194, [(2R)-3-(3-ethyl-4-oxo-spiro[6,8-dihydro-5H-pyrazolo[4,3-c]azepine-7,4′-tetrahydropyran]-1-yl)-2-methyl-propyl] 2-fluoro-6-methoxy-benzoate] | < 100 |
| CCc1nn(CCCOC(=O)c2ccc(C(=O)N3CCCCC3)cc2)c2c1C(=O)NCC1(CCOCC1)C2 [Example 146, 3-(3-ethyl-4-oxo-spiro[6,8-dihydro-5H-pyrazolo[4,3-c]azepine-7,4′-tetrahydropyran]-1-yl)propyl 4-(piperidine-1-carbonyl)benzoate] | < 100 |

same assay, conditions: read-out: PDE4 IC50 range

| SMILES | IC50 [nM] |
| --- | --- |
| CCc1nn(CC(C)(C)COC(=O)c2cccc(C(=O)N3CCN(C)CC3)c2)c2c1C(=O)NCC1(CCOCC1)C2 [Example 348, [3-(3-ethyl-4-oxo-spiro[6,8-dihydro-5H-pyrazolo[4,3-c]azepine-7,4′-tetrahydropyran]-1-yl)-2,2-dimethyl-propyl] 3-(4-methylpiperazine-1-carbonyl)benzoate] | < 100 |
| CCc1nn(C[C@H](C)COC(=O)c2ccc(Cl)cc2)c2c1C(=O)NCC1(CCOCC1)C2 [Example 279, [(2S)-3-(3-ethyl-4-oxo-spiro[6,8-dihydro-5H-pyrazolo[4,3-c]azepine-7,4′-tetrahydropyran]-1-yl)-2-methyl-propyl] 4-chlorobenzoate] | < 100 |
| CCc1nn(C(C)CCOC(=O)c2ccccc2)c2c1C(=O)NCC1(CCOCC1)C2 (stereo not shown) [Example 362, 3-(3-ethyl-4-oxo-spiro[6,8-dihydro-5H-pyrazolo[4,3-c]azepine-7,4′-tetrahydropyran]-1-yl)butyl benzoate] | < 100 |
| CCc1nn(CC(C)(C)COC(=O)c2cccc(C(=O)N3CCOCC3)c2)c2c1C(=O)NCC1(CCOCC1)C2 [Example 347, [3-(3-ethyl-4-oxo-spiro[6,8-dihydro-5H-pyrazolo[4,3-c]azepine-7,4′-tetrahydropyran]-1-yl)-2,2-dimethyl-propyl] 3-(morpholine-4-carbonyl)benzoate] | < 100 |
| CCc1nn(CC(C)(C)COC(=O)c2ccc(Cl)c(C(F)(F)F)c2)c2c1C(=O)NCC1(CCOCC1)C2 [Example 314, [3-(3-ethyl-4-oxo-spiro[6,8-dihydro-5H-pyrazolo[4,3-c]azepine-7,4′-tetrahydropyran]-1-yl)-2,2-dimethyl-propyl] 4-chloro-3-(trifluoromethyl)benzoate] | < 100 |
